The assay addresses T1, protein-protein interaction between SOS1 and KRAS-G12D (Homo sapiens, UniProt Q07889).
T1 construct: The purified GST-SOS1 catalytic domain (residues 564-1049) was first diluted in assay buffer; made in house; host or cells: E. coli BL21 (DE3) for SOS1; E. coli BL21 carrying a BirA plasmid for KRAS-G12D
T1 sequence (Q07889 564-1049): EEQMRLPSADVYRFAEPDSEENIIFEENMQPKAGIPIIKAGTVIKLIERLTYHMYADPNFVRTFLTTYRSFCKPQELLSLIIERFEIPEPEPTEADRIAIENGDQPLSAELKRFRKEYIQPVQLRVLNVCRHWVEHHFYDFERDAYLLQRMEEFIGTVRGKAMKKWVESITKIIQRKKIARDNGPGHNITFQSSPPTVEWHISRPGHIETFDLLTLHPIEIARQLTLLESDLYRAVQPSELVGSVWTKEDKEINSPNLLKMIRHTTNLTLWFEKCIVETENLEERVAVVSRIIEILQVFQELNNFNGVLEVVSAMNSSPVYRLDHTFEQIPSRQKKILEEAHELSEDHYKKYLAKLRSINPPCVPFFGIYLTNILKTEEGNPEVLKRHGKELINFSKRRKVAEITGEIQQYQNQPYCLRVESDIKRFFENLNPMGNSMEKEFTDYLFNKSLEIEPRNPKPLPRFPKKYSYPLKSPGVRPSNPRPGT
As to the kind of experiment: HTRF Based Protein-Protein Interaction Assay. The class given is binding. The settings on record: HTRF; GST-SOS1 2.5 nM, KRAS-G12D 100 nM, GDP 10 uM; read-out: IC50 value, inhibition of SOS1/KRAS-G12D protein-protein interaction. The essentials:
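GST-SOS1 (residues 564-1049, 2.5 nM) preincubated 15 min at 25° C with compound (0.5 nM-10 μM, 3-fold), then biotinylated avi-KRAS-G12D (1-169, 100 nM) with 10 uM GDP added for 60 min. HTRF read after 5 h with anti-GST-Tb cryptate/streptavidin-XL665; buffer HEPES pH 7.5, Brij-35, TCEP, BSA.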
For `C#C[C@@H](Nc1ncnc2c1cc(C1(NC(C)=O)CCOCC1)c(=O)n2C)c1cccc(C(F)(F)F)c1C` [Compound 58, (R)-N-(4-(8-methy-4-((1-(2-methyl-3-(trifluoromethyl)phenyl)prop-2-yn-1-yl}amino)-7-oxo-7,8-dihydropyrido[2,3-d]pyrimidin-6-yl)tetrahydro-2H-pyran-4-yl)acetamide], the IC50 is 100 to 200 nM.
Take `C#C[C@@H](Nc1ncnc2c1cc(C1(OC)CCN(C(C)=O)CC1)c(=O)n2C)c1cccc(C(F)F)c1F` [Compound 48, (R)-6-(1-acetyl-4-methoxypiperidin-4-yl)-4-((1-(3-(difluoromethyl)-2-fluorophenyl)prop-2-yn-1-yl)amino)-8-methylpyrido[2,3-d]pyrimidin-7(8H)-one]: the IC50 is 100 to 200 nM.
As to `C#C[C@@H](Nc1nc(C)nc2cc(=O)n(C3CCOCC3)cc12)c1cccc(C(F)(F)F)c1C` [Compound 4, (R)-2-methyl-4-((1-(2-methyl-3-(trifluoromethyl)phenyl)prop-2-yn-1-yl)amino)-6-(tetrahydro-2H-pyran-4-yl)pyrido[4,3-d]pyrimidin-7(6H)-one], the IC50 is below 100 nM.
As for `C#C[C@@H](Nc1ncnc2c1cc(C1(OC)CCN(C(C)=O)C1)c(=O)n2C)c1cccc(C(F)F)c1F` (stereo partly drawn) [Compound 49, 6-(1-acetyl-3-methoxypyrrolidin-3-yl)-4-{[(1R)-1-[3-(difluoromethyl)-2-fluorophenyl]prop-2-yn-1-yl]amino}-8-methyl-7H,8H-pyrido[2,3-d]pyrimidin-7-one], the figure is below 100 nM; as for `C#C[C@@H](Nc1nc(C)nc2c1cc(C1(OC)CCN(C(C)=O)CC1)c(=O)n2C)c1cccc(C(F)(F)F)c1C` [Compound 55, 6-(1-acetyl-4-methoxypiperidin-4-yl)-2,8-dimethyl-4-{[(1R)-1-[2-methyl-3-(trifluoromethyl)phenyl]prop-2-yn-1-yl]amino}-7H,8H-pyrido[2,3-d]pyrimidin-7-one], below 100 nM.
Consider `C#C[C@@H](Nc1ncnc2c1cc(C1(O)CCN(C(C)=O)CC1)c(=O)n2C)c1cccc(C(F)F)c1F` [Compound 46, 6-(1-acetyl-4-hydroxypiperidin-4-yl)-4-{[(1R)-1-[3-(difluoromethyl)-2-fluorophenyl]prop-2-yn-1-yl]amino}-8-methyl-7H,8H-pyrido[2,3-d]pyrimidin-7-one], for which the IC50 was below 100 nM.
With `C#C[C@@H](Nc1nc(C)nc2cc(=O)n(C3(C(F)F)CC3)cc12)c1cccc(C(F)(F)F)c1C` [Compound 9, (R)-6-(1-(difluoromethyl)cyclopropyl)-2-methyl-4-((1-(2-methyl-3-(trifluoromethyl)phenyl)prop-2-yn-1-yl)amino)pyrido[4,3-d]pyrimidin-7(6H)-one], the IC50 is below 100 nM.
As for `C#C[C@@H](Nc1ncnc2c1cc(C1(NC(C)=O)CCN(C(C)=O)CC1)c(=O)n2C)c1cccc(C(F)(F)F)c1C` [Compound 57, (R)-N-(1-acetyl-4-(8-methy-4-((1-(2-methyl-3-(trifluoromethyl)phenyl)prop-2-yn-1-yl)amino)-7-oxo-7,8-dihydropyrido[2,3-d]pyrimidin-6-yl)piperidin-4-yl)acetamide], the IC50 is below 100 nM.
For `C#C[C@@H](Nc1nc(C)nc2c1cc(C1(F)CCN(C(C)=O)CC1)c(=O)n2C)c1cccc(C(F)(F)F)c1C` [Compound 56, 6-(1-acetyl-4-fluoropiperidin-4-yl)-2,8-dimethyl-4-{[(1R)-1-[2-methyl-3-(trifluoromethyl)phenyl]prop-2-yn-1-yl]amino}-7H,8H-pyrido[2,3-d]pyrimidin-7-one], the IC50 is below 100 nM.
Regarding `C#C[C@@H](Nc1ncnc2c1cc(C1(O)CCN(C(C)=O)C1)c(=O)n2C)c1cccc(C(F)F)c1F` (stereo partly drawn) [Compound 43, 6-(1-acetyl-3-hydroxypyrrolidin-3-yl)-4-{[(1R)-1-[3-(difluoromethyl)-2-fluorophenyl]prop-2-yn-1-yl]amino}-8-methyl-7H,8H-pyrido[2,3-d]pyrimidin-7-one], the IC50 lay within 100 to 200 nM.
As for `C#C[C@@H](Nc1nc(C)nc2c1cc(C1(O)CCN(C(C)=O)CC1)c(=O)n2C)c1cccc(C(F)(F)F)c1C` [Compound 54, 6-(1-acetyl-4-hydroxypiperidin-4-yl)-2,8-dimethyl-4-{[(1R)-1-[2-methyl-3-(trifluoromethyl)phenyl]prop-2-yn-1-yl]amino}-7H,8H-pyrido[2,3-d]pyrimidin-7-one], the figure is below 100 nM.
